pIC50: −log10 of the molar value.
Tests used:
Plasmodium falciparum [1] = experiment: Antiparasitic activity against chloroquine-sensitive Plasmodium falciparum 3D7; assay type: functional, organism-based
Plasmodium falciparum [2] = experiment: Antiparasitic activity against chloroquine-resistant Plasmodium falciparum K1; assay type: functional, organism-based
Plasmodium falciparum [3] = experiment: Relative IC50 against Plasmodium falciparum K1 and 3D7; assay type: functional
KB = experiment: Cytotoxicity against human KB cells by alamar blue assay; assay type: functional, cell-based; conditions: for CC50: read-out: TD50 (the source's name)
Plasmodium falciparum [4] = experiment: microbe, parasite or virus in culture; conditions: 3 h
Description: Antiparasitic activity against chloroquine-sensitive Plasmodium falciparum by [3H]hypoxanthine incorporation

Plasmodium berghei [5] = experiment: Reduced parasitemia in Plasmodium berghei ANKA infected BALB/c mice (Mus musculus) at 21 mg/kg intraperitoneal dose after 4 days; assay type: functional; parameters: scale not given: the % may be the effect or the level left
Plasmodium berghei [6] = experiment: Antimalarial 95% clearance activity against Plasmodium berghei ANKA infected BALB/c mice (Mus musculus) at 21 mg/kg intraperitoneal dose after 4 days; assay type: functional
Plasmodium berghei [7] = experiment: Antimalarial activity against Plasmodium berghei ANKA infected BALB/c mice (Mus musculus) at 21 mg/kg intraperitoneal dose after 4 days; assay type: functional; conditions: ip, 96 h
Plasmodium berghei [8] = experiment: Reduced parasitemia in Plasmodium berghei ANKA infected BALB/c mice (Mus musculus) at 30 mg/kg intraperitoneal dose after 4 days; assay type: functional; parameters: scale not given: the % may be the effect or the level left
Plasmodium berghei [9] = experiment: Antimalarial 95% clearance activity against Plasmodium berghei ANKA infected BALB/c mice (Mus musculus) at 30 mg/kg intraperitoneal dose after 4 days; assay type: functional
Plasmodium berghei [10] = experiment: Antimalarial activity against Plasmodium berghei ANKA infected BALB/c mice (Mus musculus) at 30 mg/kg intraperitoneal dose after 4 days; assay type: functional; conditions: ip, 96 h
Plasmodium berghei [11] = experiment: Reduced parasitemia in Plasmodium berghei ANKA infected BALB/c mice (Mus musculus) at 10 mg/kg peroral dose after 4 days; assay type: functional; parameters: scale not given: the % may be the effect or the level left; conditions: route oral
Plasmodium berghei [12] = experiment: Antimalarial activity against Plasmodium berghei ANKA infected BALB/c mice (Mus musculus) at 10 mg/kg peroral dose after 4 days; assay type: functional; conditions: 96 h, route oral

Structure (SMILES) | pIC50 (Plasmodium falciparum [1]) | pIC50 (Plasmodium falciparum [2]) | Ratio IC50 (Plasmodium falciparum [3]) | CC50 (KB) | further results
CC(C)(C)NCCNc1ccnc2cc(Cl)ccc12 | 7.67 | 6.89 | 6 | 143000 nM | –
CCN(CC)Cc1cc(Nc2ccnc3cc(Cl)ccc23)ccc1O.Cl | – | 8.19 | 0.6 | – | pIC50 (Plasmodium falciparum [4]): 8.02
COc1c(C)c(CN(CCNc2ccnc3cc(Cl)ccc23)C(C)C)c(OC)c2ccccc12 | 7.08 | 6.98 | – | 85800 nM | –
COc1cc(CN(CCNc2ccnc3cc(Cl)ccc23)CC(C)(C)C)c(OC)c2ccccc12 | 6.62 | 6.81 | – | 8800 nM | –
CCN(CC)Cc1cc(Nc2ccnc3cc(Cl)ccc23)ccc1OCc1c(C(F)(F)F)c(OC)c2ccccc2c1OC | 7.49 | 7.49 | 1 | 15000 nM | –
COc1c(C)c(CCCCCC(=O)N(CCNc2ccnc3cc(Cl)ccc23)C(C)C)c(OC)c2ccccc12 | 7.28 | 6.52 | 5.7 | 6900 nM | –
COc1cc(CNCCNc2ccnc3cc(Cl)ccc23)c(OC)c2ccccc12 | 7.63 | 7.55 | – | 3800 nM | –
Clc1ccc2c(N3CC3)ccnc2c1 | 4.80 | 4.41 | 2.4 | 102000 nM | –
COc1c(CNCCNc2ccnc3cc(Cl)ccc23)c(C(F)(F)F)c(OC)c2ccccc12 | 6.89 | 7.80 | – | 28500 nM | –
COc1cc(CN(CCNc2ccnc3cc(Cl)ccc23)CC(C)C)c(OC)c2ccccc12 | 6.83 | 6.73 | – | 43800 nM | –
CC1=C(CCCCCC(=O)NCCNc2ccnc3cc(Cl)ccc23)C(=O)c2ccccc2C1=O | 6.74 | 6.43 | 2 | 22200 nM | –
COc1c(C)c(CN(CCNc2ccnc3cc(Cl)ccc23)CC(C)C)c(OC)c2ccccc12 | 6.74 | 7.39 | – | 30600 nM | –
COc1cc(CN(CCNc2ccnc3cc(Cl)ccc23)C(C)C)c(OC)c2ccccc12 | 6.29 | 6.46 | – | – | pIC50 (KB): 4.17
COc1c(CN(CCNc2ccnc3cc(Cl)ccc23)CC(C)C)c(C(F)(F)F)c(OC)c2ccccc12 | 6.79 | 6.70 | – | 11900 nM | –
COc1c(CN(CCNc2ccnc3cc(Cl)ccc23)C(C)C)c(C(F)(F)F)c(OC)c2ccccc12 | 6.74 | 6.52 | – | 35400 nM | –
COc1c(C)c(CNCCNc2ccnc3cc(Cl)ccc23)c(OC)c2ccccc12 | 6.64 | 7.64 | – | 5100 nM | –
CC(C)(C)CNCCNc1ccnc2cc(Cl)ccc12 | 7.69 | 8.17 | 0.3 | 62100 nM | –
COc1c(C)c(Cc2ccc(CC(=O)NCCNc3ccnc4cc(Cl)ccc34)cc2)c(OC)c2ccccc12 | 6.54 | 6.30 | 1.7 | 11500 nM | –
COc1c(C)c(Cc2ccc(CC(=O)N(CCNc3ccnc4cc(Cl)ccc34)C(C)C)cc2)c(OC)c2ccccc12 | 6.50 | 6.57 | 0.8 | 1700 nM | –
Clc1ccc2c(NCCNCC3CC3)ccnc2c1 | 8.57 | 6.84 | 53.7 | 71900 nM | –
CC(C)NCCCNc1ccnc2cc(Cl)ccc12 | 8.44 | 6.84 | 40 | 47900 nM | –

Structure (SMILES) | pIC50 (Plasmodium falciparum [1]) | pIC50 (Plasmodium falciparum [2]) | Ratio IC50 (Plasmodium falciparum [3]) | CC50 (KB) | further results
CC(C)NCCNc1ccnc2cc(Cl)ccc12 | 7.99 | 7.01 | 9.5 | 89800 nM | –
COc1c(C)c(CN(CCNc2ccnc3cc(Cl)ccc23)CC(C)(C)C)c(OC)c2ccccc12 | 6.81 | 6.87 | – | 10600 nM | –
CC(C)(C)NC(=O)CNc1ccnc2cc(Cl)ccc12 | 6.00 | 5.84 | 1.4 | 194000 nM | –
CC1=C(CCCCCC(=O)N(CCNc2ccnc3cc(Cl)ccc23)C(C)C)C(=O)c2ccccc2C1=O | 8.12 | 8.03 | 1.1 | 37000 nM | Activity (Plasmodium berghei [5]): 12.5%; Activity (Plasmodium berghei [6]): 2.65%; inhibition in vivo at 21 mg/kg (Plasmodium berghei [7]): 18.2%
CC(=O)Nc1ccc(O)c(CN(CCCNc2ccnc3cc(Cl)ccc23)C(C)C)c1 | 7.64 | 6.50 | – | 180000 nM | –
CC(C)CNCCNc1ccnc2cc(Cl)ccc12 | 7.64 | 7.14 | 3.1 | 22500 nM | –
COc1c(COc2ccc(NC(C)=O)cc2)c(C(F)(F)F)c(OC)c2ccccc12 | 5.19 | 4.80 | 2.4 | > 715000 nM | –
CC1=C(Cc2ccc(CC(=O)N(CCNc3ccnc4cc(Cl)ccc34)C(C)C)cc2)C(=O)c2ccccc2C1=O | 7.91 | 8.28 | 0.4 | 318000 nM | –
COc1c(CN(CCNc2ccnc3cc(Cl)ccc23)CC(C)(C)C)c(C(F)(F)F)c(OC)c2ccccc12 | 6.84 | 6.94 | – | 12000 nM | –
CC(C)(C)CNCCNc1ccnc2cc(Cl)ccc12.Cl | – | – | – | – | Activity (Plasmodium berghei [8]): 0.86%; Activity (Plasmodium berghei [9]): 0.31%; inhibition in vivo at 30 mg/kg (Plasmodium berghei [10]): 94.4%
COc1c(CNCCNc2ccnc3cc(Cl)ccc23)c(C(F)(F)F)c(OC)c2ccccc12.Cl | – | – | – | – | Activity (Plasmodium berghei [8]): 12.48%; Activity (Plasmodium berghei [9]): 2.82%; inhibition in vivo at 30 mg/kg (Plasmodium berghei [10]): 18.3%
CO[C@H]1O[C@@H]2O[C@@]3(C)CC[C@H]4[C@H](C)CC[C@@H]([C@H]1C)[C@@]24OO3 | – | – | – | – | pIC50 (Plasmodium falciparum [4]): 8.55
NCCNc1ccnc2cc(Cl)ccc12 | 8.35 | 5.74 | 400 | 49600 nM | –
CC(=O)Nc1ccc(O)cc1 [ACETAMINOPHEN] | < 3.70 | 4.06 | <0.4 | – | –
C[C@@H]1CC[C@H]2[C@@H](C)C(=O)O[C@@H]3O[C@@]4(C)CC[C@@H]1[C@]32OO4 [ARTEMISININ] | – | – | – | – | pIC50 (Plasmodium falciparum [4]): 8.35
CCN(CC)CCCC(C)Nc1ccnc2cc(Cl)ccc12 (stereo unspecified) [CHLOROQUINE] | – | – | – | 127000 nM | Activity (Plasmodium berghei [11]): 0.13%; inhibition in vivo at 10 mg/kg (Plasmodium berghei [12]): 99.2%
O[C@@H](c1cc(C(F)(F)F)nc2c(C(F)(F)F)cccc12)[C@H]1CCCCN1 [MEFLOQUINE] | – | – | – | – | pIC50 (Plasmodium falciparum [4]): 8.31
CN(C)c1ccc2nc3ccc(N(C)C)cc3[s+]c2c1 [METHYLENE BLUE ANHYDROUS] | – | – | – | – | pIC50 (Plasmodium falciparum [4]): 8.27
Clc1ccc2c(N3CCN(CCCN4CCN(c5ccnc6cc(Cl)ccc56)CC4)CC3)ccnc2c1 [PIPERAQUINE] | – | – | – | – | pIC50 (Plasmodium falciparum [4]): 7.84
COc1cc([C@@H]2c3cc4c(cc3[C@H](O)[C@H]3COC(=O)[C@H]23)OCO4)cc(OC)c1OC [PODOFILOX] | – | – | – | 49600 nM | –
